This test deals with perennial ryegrass 96-3047. The test can be described thus: Glyphosate applied at termination of the Maryland turf trial, plot survival. The format is in vivo, Lolium perenne L. As to conditions: glyphosate at 2-quarts per acre; plot 96-3047, Maryland trial, 1999; only plot in the trial not killed. An excerpt: ‘Replay’ was developed from a greenhouse cross made in 1992 of perennial ryegrass ‘APM’ (registered, Reg. No. CV-185, PI 565096) pollinated by perennial ryegrass ‘Birdie II’ (registered, Reg. No. 133, PI 537452) in Post Falls, Id. Progeny of this cross was planted in a 1992 spaced-plant nursery in Post Falls, Id., and designated as 92-0226. An open-pollinated selection from this population, designated as 93-0736, was harvested and planted in company turf trials in Post Falls, Id., and Poolesville, Md., in 1993. In 1995, plugs of 93-0736 were pulled from the Maryland plot based on the desirable characteristics of dark green color and turf performance, and then planted in a spaced-plant nursery in Post Falls, Id. In 1996, the perennial ryegrass 96-3047 was selected from this population and planted in company turf trials in both Post Falls, Id., and Poolesville, Md.
In 1999, during the termination of the Maryland trial, 96-3047 was the only plot in the trial that was not killed when glyphosate at the rate of 2-quarts per acre was applied. Survival in the plot was estimated at 30% and plugs were pulled, coded as 99-0089, and 200 plants of 99-0089 were planted in an isolation block in the 1999 Post Falls, Id. nursery.

On to `O=C(O)CNCP(=O)(O)O` [glyphosate, N-(phosphonomethyl) glycine], for which the “Survival in the plot” value is listed as around 30%.

The record behind these values is patent publication US8604280B2, “Glyphosate tolerant perennial ryegrass named ‘replay’” (J.R. Simplot Company, priority 2009, dated 2013).
